The record followed here is BindingDB's records for doi:10.1016/S0960-894X(00)80678-2 (1993).

The Ki is a dissociation constant, usually derived from enzyme kinetics or from competition with a known ligand. Low values mean tighter binding, high ones weaker binding.

Experiment [1] has as its target Gastrin/cholecystokinin type B receptor (Cavia porcellus). As to the kind of experiment: Tested for the inhibition of [3H]pCCK-8 binding to Cholecystokinin type B receptor in guinea pig brain.
Experiment [2] has the same target. The experiment is described as above. The source holds these as a separate data set.

Non-standard residues stand in square brackets, D forms with d. Residues, ends and D or L forms follow the SMILES beside them. *: point of attachment. 1Nal = N[C@@H](Cc1cccc2ccccc12)C(=O)O; Boc = CC(C)(C)OC(=O)*

`CC(C)(C)OC(=O)N[C@@H](Cc1c[nH]c2ccccc12)C(=O)N[C@@H](Cc1ccccc1)C(=O)N[C@@H](CC(=O)O)C(=O)N[C@@H](Cc1cccc2ccccc12)C(N)=O` [Boc-Trp-Phe-Asp-1Nal-NH2] (Boc-WFD[1Nal]-NH2): affinity in experiment [1] was put at a Ki of 71000 pM.
On the same count and under the same terms, next, `CCCC[C@@H](NC(=O)CC(=O)N[C@@H](Cc1c[nH]c2ccccc12)C(=O)N(C)[C@@H](CCCC)C(=O)N[C@@H](CC(=O)O)C(=O)N[C@@H](Cc1ccccc1)C(N)=O)NC(=O)[C@H](Cc1ccc(CS(=O)(=O)O)cc1)NC(=O)OC(C)(C)C` [Boc-Phe(CH2-SO3Na)-gNle-mCIy-Trp-(N-Me)Nle-Asp-Phe-NH2]: 460 pM.
Turning to `CCCC[C@@H](NC(=O)CC(=O)N[C@@H](Cc1c[nH]c2ccccc12)C(=O)N(C)[C@@H](CCCC)C(=O)N[C@@H](CC(=O)O)C(=O)N[C@@H](Cc1ccccc1)C(N)=O)NC(=O)[C@H](Cc1ccc(OS(=O)(=O)O)cc1)NC(=O)OC(C)(C)C` [Boc-Tyr(SO3Na)-gNle-mGIy-Trp-(N-Me)Nle-Asp-Phe-NH2], in experiment [2], affinity was put at a Ki of 150 pM.
